A short description of the assay: Fluorescence titration of sensors with Al^3+. The conditions noted are these: λex=510 nm, emission 585 nm. On the procedure:
All reagents and solvents were purchased as analytical-grade and used without further purification unless otherwise stated. Stock solutions of metal ions were prepared from their nitrate and chloride salts and anion species from their tetrabutylammonium salts. Distilled deionized water was used throughout the experiments. ^1H-NMR and 13C-NMR spectra were recorded using an Avance 400 MHz spectrometer (BRUKER® Billerica, Karlsruhe, Germany) with tetramethylsilane (TMS) as internal standard and deuterated chloroform (CDCl3) as solvent. NMR spectra were analyzed using MestReNova software (version 10, Mestrela Research, Feliciano Barrera-Bajo, Spain). The IR spectrum was obtained using FT-IR spectrometer (Shimadzu, IRAffinity-1S, Columbia, MD, USA). […] All UV-vis spectroscopy experiments were recorded using a Cary UV/vis spectrophotometer 5000 (VARIAN®, Walnut Creek, CA, USA). Fluorescence emission spectra experiments were measured using a Cary 60 series spectrometer (AGILENT® Walnut Creek, CA, USA), with excitation and emission slit widths of 5 nm and excitation wavelength at 510 nm. […]
All spectroscopic measurements were carried out in aqueous CH3CN medium at room temperature. […] Each fluorescence titration was repeated at least thrice until consistent values were obtained. […] The association constant (K) was calculated from absorbance studies by the linear Benesi-Hildebrand equation. […]

As to `CCN(CC)c1ccc2c(c1)Oc1cc(N(CC)CC)ccc1C21c2ccccc2C(=O)N1/N=C/c1cc(Br)cc(OC)c1O` [L2], the “detection limit for Al^3+ ions” value was 47 µM.
Under `CCN(CC)c1ccc2c(c1)Oc1cc(N(CC)CC)ccc1C21c2ccccc2C(=O)N1/N=C/c1c(OC)ccc2ccccc12` [L1] stands 32 µM.

These data come from US12287326B2, “Fluorescent turn-on chemosensors for detection of aluminum ion and azide” (Morgan State University, priority 2019, dated 2025).
